Measured values taken from the supplement of paper PMC10307832.

What was measured:
Assay in all cases: relative viability (nuclei count vs DMSO), 5 days (fraction); higher = more cells survive
[1] = system: NCI-H1355
Outline: (§1)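 Relative viability is defined as nuclei in treated wells over nuclei in vehicle wells. Duplicate plates were run and medians reported. Lung cancer cell lines in 1536-well plates were dosed by pin tool one day after seeding, with one drug or with a fixed anchor-drug dose plus five library-drug doses (not always all listed) in √10 steps, and nuclei were counted after 5 days.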

[2] = system: NCI-H322M
Outline: as §1

[3] = system: NCI-H1993
Outline: as §1

[4] = system: NCI-H2342
Outline: as §1

[5] = system: SK-MES-1
Outline: as §1

[6] = system: HOP-62
Outline: as §1

[7] = system: COR-L 105
Outline: as §1

[8] = system: NCI-H2228
Outline: as §1

[9] = system: NCI-H1395
Outline: as §1

[10] = system: NCI-H838
Outline: as §1

[11] = system: NCI-H1734
Outline: as §1

[12] = system: NCI-H2170
Outline: as §1

[13] = system: PC-14
Outline: as §1

[14] = system: NCI-H522
Outline: as §1

[15] = system: NCI-H2009
Outline: as §1

[16] = system: NCI-H1755
Outline: as §1

[17] = system: HARA
Outline: as §1

[18] = system: NCI-H2347
Outline: as §1

[19] = system: EKVX
Outline: as §1

[20] = system: UMC-11
Outline: as §1

[21] = system: NCI-H1793
Outline: as §1

[22] = system: NCI-H647
Outline: as §1

[23] = system: NCI-H358
Outline: as §1

[24] = system: COR-L23
Outline: as §1

COc1cc(N2CCC(C(N)=O)CC2)ccc1Nc1nc(N)c(Cl)c(Nc2ccccc2S(=O)(=O)C(C)C)n1 [HG-5-88-01] + Nc1nc2[nH]cc(CCc3ccc(C(=O)N[C@@H](CCC(=O)O)C(=O)O)cc3)c2c(=O)[nH]1 [Pemetrexed] (partner 0.2 µM)
relative viability ([1]; first compound 0.04 µM): 1.11 | relative viability ([1]; first compound 0.1265 µM): 1.03 | relative viability ([1]; first compound 0.4 µM): 0.726 | relative viability ([1]; first compound 1.265 µM): 1.04 | relative viability ([1]; first compound 4 µM): 0.685 | relative viability ([2]; first compound 0.04 µM): 0.638 | relative viability ([2]; first compound 0.1265 µM): 0.536 | relative viability ([2]; first compound 0.4 µM): 0.607 | relative viability ([2]; first compound 1.265 µM): 0.55 | relative viability ([2]; first compound 4 µM): 0.509 | relative viability ([3]; first compound 0.04 µM): 0.56 | relative viability ([3]; first compound 0.1265 µM): 0.577 | relative viability ([3]; first compound 0.4 µM): 0.552 | relative viability ([3]; first compound 4 µM): 0.554 | relative viability ([4]; first compound 0.04 µM): 0.664 | relative viability ([4]; first compound 0.1265 µM): 0.769 | relative viability ([4]; first compound 0.4 µM): 0.704 | relative viability ([4]; first compound 4 µM): 0.856 | relative viability ([5]; first compound 0.04 µM): 0.922 | relative viability ([5]; first compound 0.1265 µM): 0.923 | relative viability ([5]; first compound 0.4 µM): 0.827 | relative viability ([5]; first compound 1.265 µM): 0.853 | relative viability ([5]; first compound 4 µM): 1 | relative viability ([6]; first compound 0.04 µM): 0.319 | relative viability ([6]; first compound 0.1265 µM): 0.297 | relative viability ([6]; first compound 0.4 µM): 0.288 | relative viability ([6]; first compound 1.265 µM): 0.381 | relative viability ([6]; first compound 4 µM): 0.341 | relative viability ([7]; first compound 0.04 µM): 1.02 | relative viability ([7]; first compound 0.1265 µM): 1.21 | relative viability ([7]; first compound 0.4 µM): 1.18 | relative viability ([7]; first compound 1.265 µM): 0.989 | relative viability ([7]; first compound 4 µM): 0.899 | relative viability ([8]; first compound 0.04 µM): 0.372 | relative viability ([8]; first compound 0.1265 µM): 0.237 | relative viability ([8]; first compound 0.4 µM): 0.237 | relative viability ([8]; first compound 1.265 µM): 0.26 | relative viability ([8]; first compound 4 µM): 0.183 | relative viability ([9]; first compound 0.04 µM): 0.825 | relative viability ([9]; first compound 0.1265 µM): 0.923 | relative viability ([9]; first compound 0.4 µM): 0.751 | relative viability ([9]; first compound 1.265 µM): 1.05 | relative viability ([9]; first compound 4 µM): 0.753 | relative viability ([10]; first compound 0.04 µM): 0.248 | relative viability ([10]; first compound 0.1265 µM): 0.256 | relative viability ([10]; first compound 0.4 µM): 0.209 | relative viability ([10]; first compound 1.265 µM): 0.234 | relative viability ([10]; first compound 4 µM): 0.246 | relative viability ([11]; first compound 0.04 µM): 0.398 | relative viability ([11]; first compound 0.1265 µM): 0.423 | relative viability ([11]; first compound 0.4 µM): 0.361 | relative viability ([11]; first compound 1.265 µM): 0.391 | relative viability ([11]; first compound 4 µM): 0.375 | relative viability ([12]; first compound 0.04 µM): 0.286 | relative viability ([12]; first compound 0.1265 µM): 0.28 | relative viability ([12]; first compound 0.4 µM): 0.261 | relative viability ([12]; first compound 1.265 µM): 0.257 | relative viability ([12]; first compound 4 µM): 0.249 | relative viability ([13]; first compound 0.04 µM): 0.124 | relative viability ([13]; first compound 0.1265 µM): 0.114 | relative viability ([13]; first compound 0.4 µM): 0.0722 | relative viability ([13]; first compound 1.265 µM): 0.129 | relative viability ([13]; first compound 4 µM): 0.074 | relative viability ([14]; first compound 0.04 µM): 0.967 | relative viability ([14]; first compound 0.1265 µM): 0.969 | relative viability ([14]; first compound 0.4 µM): 1.01 | relative viability ([14]; first compound 1.265 µM): 0.841 | relative viability ([14]; first compound 4 µM): 0.783 | relative viability ([15]; first compound 0.04 µM): 1.01 | relative viability ([15]; first compound 0.1265 µM): 1.03 | relative viability ([15]; first compound 0.4 µM): 0.959 | relative viability ([15]; first compound 1.265 µM): 0.963 | relative viability ([15]; first compound 4 µM): 0.975 | relative viability ([16]; first compound 0.04 µM): 0.446 | relative viability ([16]; first compound 0.1265 µM): 0.54 | relative viability ([16]; first compound 0.4 µM): 0.407 | relative viability ([16]; first compound 1.265 µM): 0.43 | relative viability ([16]; first compound 4 µM): 0.447 | relative viability ([17]; first compound 0.04 µM): 0.221 | relative viability ([17]; first compound 0.1265 µM): 0.225 | relative viability ([17]; first compound 0.4 µM): 0.199 | relative viability ([17]; first compound 1.265 µM): 0.24 | relative viability ([17]; first compound 4 µM): 0.201 | relative viability ([18]; first compound 0.04 µM): 0.413 | relative viability ([18]; first compound 0.1265 µM): 0.399 | relative viability ([18]; first compound 0.4 µM): 0.433 | relative viability ([18]; first compound 1.265 µM): 0.424 | relative viability ([18]; first compound 4 µM): 0.441 | relative viability ([19]; first compound 0.04 µM): 0.468 | relative viability ([19]; first compound 0.1265 µM): 0.407 | relative viability ([19]; first compound 0.4 µM): 0.301 | relative viability ([19]; first compound 4 µM): 0.352 | relative viability ([20]; first compound 0.04 µM): 0.797 | relative viability ([20]; first compound 0.1265 µM): 0.772 | relative viability ([20]; first compound 0.4 µM): 0.844 | relative viability ([20]; first compound 1.265 µM): 0.827 | relative viability ([20]; first compound 4 µM): 0.789 | relative viability ([21]; first compound 0.04 µM): 0.829 | relative viability ([21]; first compound 0.1265 µM): 0.8 | relative viability ([21]; first compound 0.4 µM): 0.828 | relative viability ([21]; first compound 1.265 µM): 0.692 | relative viability ([21]; first compound 4 µM): 0.522 | relative viability ([22]; first compound 0.04 µM): 0.159 | relative viability ([22]; first compound 0.1265 µM): 0.194 | relative viability ([22]; first compound 1.265 µM): 0.184 | relative viability ([22]; first compound 4 µM): 0.157 | relative viability ([23]; first compound 0.04 µM): 0.145 | relative viability ([23]; first compound 0.1265 µM): 0.174 | relative viability ([23]; first compound 0.4 µM): 0.162 | relative viability ([23]; first compound 1.265 µM): 0.132 | relative viability ([23]; first compound 4 µM): 0.148 | relative viability ([24]; first compound 0.04 µM): 0.196 | relative viability ([24]; first compound 0.1265 µM): 0.208 | relative viability ([24]; first compound 0.4 µM): 0.184 | relative viability ([24]; first compound 1.265 µM): 0.199 | relative viability ([24]; first compound 4 µM): 0.166
